US9096591B2, “Tetracyclic compounds” (Medivation Technologies, Inc., priority 2007, dated 2015)
Like-named read-outs stand apart in the source and are kept apart here.

How the values were obtained:
[1] = target: T1, human recombinant serotonin (5-Hydroxytryptamine) 5-HT2C receptor (Homo sapiens, UniProt P28335); assay: Serotonin 5-HT2C radioligand binding ([3H]Mesulergine); parameters: Inhibition of ligand binding, Ser. 5-HT2C: concentration or dose not given beside the values; settings: percent inhibition of specific binding
T1 construct: expressed in transfected cells; host or cells: CHO-K1 cells
T1 sequence (P28335 33-458): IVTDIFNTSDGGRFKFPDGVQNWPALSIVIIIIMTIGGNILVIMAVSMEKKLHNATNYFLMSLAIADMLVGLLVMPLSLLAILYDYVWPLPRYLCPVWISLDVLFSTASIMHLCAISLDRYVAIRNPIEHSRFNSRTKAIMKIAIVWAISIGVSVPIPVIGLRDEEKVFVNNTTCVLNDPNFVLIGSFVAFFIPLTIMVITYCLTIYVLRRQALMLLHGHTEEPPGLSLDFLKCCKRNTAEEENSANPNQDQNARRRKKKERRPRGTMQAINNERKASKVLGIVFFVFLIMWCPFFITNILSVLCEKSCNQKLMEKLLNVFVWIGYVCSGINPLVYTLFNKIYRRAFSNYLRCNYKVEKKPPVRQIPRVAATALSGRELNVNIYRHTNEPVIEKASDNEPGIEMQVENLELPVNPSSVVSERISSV
Description: (§1) Compounds of the invention were incubated with 1 nM [^3H]Mesulergine for 60 minutes at 25° C. Non-specific binding was estimated in the presence of 1 μM Mianserin. Receptor proteins were filtered and washed, the filters were then counted to determine [^3H]Mesulergine specifically bound. […] Biochemical assay results are presented as the percent inhibition of specific binding in Table 6.

[2] = target: T2, human recombinant dopamine D2L receptor (Homo sapiens, UniProt P14416); assay: Dopamine D2L radioligand binding ([3H]Spiperone); settings: percent inhibition of specific binding
T2 construct: expressed in transfected cells; host or cells: CHO cells
Description: Non-specific binding was estimated in the presence of 10 μM Haloperidol. Receptor proteins were filtered and washed, the filters were then counted to determine [^3H]Spiperone specifically bound. […] Biochemical assay results are presented as the percent inhibition of specific binding in Table 6.

[3] = target: T3, Serotonin (5-Hydroxytryptamine) 5-HT7 (Homo sapiens, UniProt P34969); assay: Serotonin 5-HT7 radioligand binding ([3H]LSD); parameters: Inhibition of ligand binding, Ser. 5-HT7: concentration or dose not given beside the values; settings: percent inhibition of specific binding
T3 construct: expressed in transfected cells; host or cells: CHO cells
Description: Lysergic acid diethylamide (LSD) for 2 hours at 25° C. […] Receptor proteins were filtered and washed, the filters were then counted to determine [^3H]LSD specifically bound. […] Biochemical assay results are presented as the percent inhibition of specific binding in Table 6.

[4] = target: T4, human recombinant histamine H2 receptor (Homo sapiens, UniProt P25021); assay: Histamine H2 radioligand binding ([125I]Aminopotentidine)
T4 construct: expressed in transfected cells; host or cells: CHO-K1 cells
Outline: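 Test compounds were assessed for their ability to displace radioligand from the human recombinant histamine H2 receptor. Non-specific binding was determined in the presence of 3 μM Tiotidine, and results were expressed as percent inhibition of specific binding, with 1% DMSO serving as the vehicle.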

[5] = target: T5, human recombinant serotonin (5-Hydroxytryptamine) 5-HT2A receptor (Homo sapiens, UniProt P28223); assay: Serotonin 5-HT2A radioligand binding ([3H]Ketanserin); settings: percent inhibition of specific binding
T5 construct: expressed in transfected cells; host or cells: CHO-K1 cells
Description: as §1, with “with 0.5” for “with 1”, “nM [^3H]Ketanserin” for “nM [^3H]Mesulergine”, “determine [^3H]Ketanserin” for “determine [^3H]Mesulergine”

[6] = target: T6, human recombinant serotonin (5-Hydroxytryptamine) 5-HT6 receptor (Homo sapiens, UniProt P50406); assay: Serotonin 5-HT6 radioligand binding ([3H]LSD); parameters: Inhibition of ligand binding, Ser. 5-HT6: concentration or dose not given beside the values; settings: percent inhibition of specific binding
T6 construct: expressed in transfected cells; host or cells: human HeLa cells
Text: Receptor proteins were filtered and washed, the filters were then counted to determine [3H]LSD specifically bound. […] Biochemical assay results are presented as the percent inhibition of specific binding in Table 6.

[7] = target: T7, human recombinant adrenergic α2B receptor (Homo sapiens, UniProt P18089); assay: Adrenergic α2B radioligand binding ([3H]Rauwolscine); parameters: Inhibition of ligand binding, Adren. alpha2B: concentration or dose not given beside the values; settings: percent inhibition of specific binding
T7 construct: expressed in transfected cells; host or cells: CHO-K1 cells
T7 sequence (P18089 1-450): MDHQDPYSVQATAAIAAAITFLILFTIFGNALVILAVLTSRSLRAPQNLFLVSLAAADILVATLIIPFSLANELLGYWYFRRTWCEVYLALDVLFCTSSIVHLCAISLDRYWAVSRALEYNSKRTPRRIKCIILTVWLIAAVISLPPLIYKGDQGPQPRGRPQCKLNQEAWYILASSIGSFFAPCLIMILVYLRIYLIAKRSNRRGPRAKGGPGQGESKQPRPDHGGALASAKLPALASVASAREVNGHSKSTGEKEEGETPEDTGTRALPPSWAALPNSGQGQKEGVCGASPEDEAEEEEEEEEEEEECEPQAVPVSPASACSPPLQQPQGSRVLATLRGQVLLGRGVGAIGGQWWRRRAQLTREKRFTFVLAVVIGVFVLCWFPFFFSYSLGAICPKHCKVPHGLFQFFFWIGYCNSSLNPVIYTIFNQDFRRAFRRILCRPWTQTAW
Outline: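 Membranes from CHO-K1 cells expressing the receptor, in 50 mM Tris-HCl pH 7.4 with 12.5 mM MgCl2, 1 mM EDTA, 0.2% BSA, incubated with compounds and 2.5 nM [3H]Rauwolscine for 60 minutes at 25 °C.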

[8] = percent inhibition of specific binding, screened at 1 μM, read-out: Inhibition of ligand binding, Hist. H2
[9] = read-out: Inhibition of ligand binding, Hist. H2

T2 sequence (P14416 whole entry): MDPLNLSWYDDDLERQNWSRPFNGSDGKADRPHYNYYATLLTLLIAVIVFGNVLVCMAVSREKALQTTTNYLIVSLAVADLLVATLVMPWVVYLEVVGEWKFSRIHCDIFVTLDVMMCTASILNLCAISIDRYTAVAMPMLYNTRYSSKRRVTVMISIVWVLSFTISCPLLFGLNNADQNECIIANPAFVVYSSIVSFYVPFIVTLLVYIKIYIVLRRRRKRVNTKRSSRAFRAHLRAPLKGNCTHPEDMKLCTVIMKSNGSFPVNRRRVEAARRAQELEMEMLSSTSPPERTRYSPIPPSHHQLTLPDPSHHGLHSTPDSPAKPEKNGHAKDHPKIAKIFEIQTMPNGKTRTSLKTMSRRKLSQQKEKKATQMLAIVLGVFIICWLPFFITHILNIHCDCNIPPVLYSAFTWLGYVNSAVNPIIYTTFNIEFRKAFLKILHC
T3 sequence (P34969 whole entry): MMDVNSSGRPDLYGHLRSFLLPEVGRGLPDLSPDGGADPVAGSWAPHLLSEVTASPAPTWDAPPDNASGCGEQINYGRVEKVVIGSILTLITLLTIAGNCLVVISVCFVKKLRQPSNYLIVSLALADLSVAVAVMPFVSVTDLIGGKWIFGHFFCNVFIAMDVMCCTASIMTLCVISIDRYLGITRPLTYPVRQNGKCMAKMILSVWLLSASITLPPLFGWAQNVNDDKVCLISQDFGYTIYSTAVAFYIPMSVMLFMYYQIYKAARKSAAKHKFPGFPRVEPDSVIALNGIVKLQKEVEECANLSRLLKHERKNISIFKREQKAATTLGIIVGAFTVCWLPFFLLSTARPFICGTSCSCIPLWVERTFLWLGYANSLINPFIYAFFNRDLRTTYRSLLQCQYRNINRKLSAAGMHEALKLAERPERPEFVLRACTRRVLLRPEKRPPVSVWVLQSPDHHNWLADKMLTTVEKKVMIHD
T4 sequence (P25021 whole entry): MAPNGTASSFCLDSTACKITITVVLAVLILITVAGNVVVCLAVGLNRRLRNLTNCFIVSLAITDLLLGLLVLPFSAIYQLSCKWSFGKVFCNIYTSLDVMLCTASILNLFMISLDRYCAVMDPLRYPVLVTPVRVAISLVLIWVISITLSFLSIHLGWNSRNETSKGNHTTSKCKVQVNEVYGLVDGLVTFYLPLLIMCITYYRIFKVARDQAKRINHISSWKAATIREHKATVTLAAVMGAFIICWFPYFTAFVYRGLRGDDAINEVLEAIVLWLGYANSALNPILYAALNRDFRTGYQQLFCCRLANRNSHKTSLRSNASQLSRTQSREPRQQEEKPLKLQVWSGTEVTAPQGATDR
T5 sequence (P28223 whole entry): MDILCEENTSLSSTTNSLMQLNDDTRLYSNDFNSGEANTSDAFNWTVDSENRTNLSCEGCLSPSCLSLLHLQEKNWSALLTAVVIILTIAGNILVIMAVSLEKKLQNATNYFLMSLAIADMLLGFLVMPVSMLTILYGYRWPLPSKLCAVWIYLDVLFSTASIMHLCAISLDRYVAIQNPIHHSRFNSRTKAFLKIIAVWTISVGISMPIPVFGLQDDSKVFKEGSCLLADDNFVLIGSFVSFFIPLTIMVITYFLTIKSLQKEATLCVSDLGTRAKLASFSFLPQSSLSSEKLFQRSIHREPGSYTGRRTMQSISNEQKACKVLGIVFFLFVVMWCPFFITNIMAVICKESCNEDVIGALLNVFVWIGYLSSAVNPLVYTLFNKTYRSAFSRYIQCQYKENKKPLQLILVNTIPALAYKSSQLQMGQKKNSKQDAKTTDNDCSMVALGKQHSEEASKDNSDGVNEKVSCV
T6 sequence (P50406 whole entry): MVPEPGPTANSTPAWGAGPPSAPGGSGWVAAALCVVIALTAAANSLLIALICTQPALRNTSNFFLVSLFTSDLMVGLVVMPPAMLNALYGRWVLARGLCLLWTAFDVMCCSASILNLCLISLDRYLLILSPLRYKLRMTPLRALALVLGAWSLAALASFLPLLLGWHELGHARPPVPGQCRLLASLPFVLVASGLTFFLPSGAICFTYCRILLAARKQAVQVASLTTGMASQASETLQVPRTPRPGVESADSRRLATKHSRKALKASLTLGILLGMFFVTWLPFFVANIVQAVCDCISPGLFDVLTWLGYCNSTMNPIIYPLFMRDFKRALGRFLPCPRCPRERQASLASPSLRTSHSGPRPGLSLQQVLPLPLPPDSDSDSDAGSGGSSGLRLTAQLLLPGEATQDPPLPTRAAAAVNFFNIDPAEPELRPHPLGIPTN

Row | SMILES | Inhibition of ligand binding, Ser. 5-HT2C [1] [%] | Inhibition of ligand binding, Dop. D2L [2] [%] | Inhibition of ligand binding, Ser. 5-HT7 [3] [%] | inhibition at 0.1 µM ([4]; 0.1 μM compound, 0.1 nM [125I]Aminopotentidine, read-out: Histamine Binding H2, percent inhibition of specific binding) [%] | inhibition at 0.3 µM ([4]; 0.3 μM compound, 0.1 nM [125I]Aminopotentidine, read-out: Histamine Binding H2, percent inhibition of specific binding) [%] | inhibition at 1 µM ([4]; 1 μM compound, 0.1 nM [125I]Aminopotentidine, read-out: Histamine Binding H2, percent inhibition of specific binding) [%] | inhibition at 1 µM [4, 8] [%] | Inhibition of ligand binding, Ser. 5-HT2A [5] [%] | Inhibition of ligand binding, Ser. 5-HT6 [6] [%] | Inhibition of ligand binding, Adren. alpha2B [7] [%] | inhibition at 1 µM [4, 9] [%] | inhibition at 1 µM ([4]; read-out: Histamine Binding H2, percent inhibition of specific binding) [%]
1 | CN1CCc2c(c3ccccc3n2CCc2ccccc2)C1 [Compound 2, 2,3,4,5-tetrahydro-2-methyl-5-phenethyl-1H-pyrido[4,3-b]indole] | 97 | 70 | 100 | 34 | 56 | 81 | 81 | 96 | 95 | – | – | –
2 | CN1CCc2c(c3cc(Cl)ccc3n2CCc2ccncc2)C1 [Compound 56] | 87 | 62 | 91 | – | – | – | 76 | 92 | 102 | 119 | – | –
3 | Cc1ccc2c(c1)c1c(n2CCc2ccc(C(F)(F)F)nc2)CCN(C)C1 [Compound 68] | 78 | 29 | 103 | – | – | – | 49 | 98 | 88 | 111 | – | –
4 | Cc1ccc2c(c1)c1c(n2CCc2ccc(C)nc2)CC(=O)N(C)C1 [Compound 195, 1,2-dihydro-2,8-dimethyl-5-(2-(6-methylpyridin-3-yl)ethyl)-4H-pyrido[4,3-b]indol-3(5H)-one] | −5 | – | 2 | – | – | – | 22 | −4 | 8 | 7 | – | –
5 | Cc1ccc2c(c1)c1c(n2CCc2ccccc2)CC(O)N(C)C1=O (stereo not shown) [Compound 215, 3,4-dihydro-3-hydroxy-2,8-dimethyl-5-phenethyl-2H-pyrido[4,3-b]indol-1(5H)-one] | 2 | – | 10 | – | – | – | – | −6 | 8 | −4 | 16 | –
6 | Cc1ccc2c(c1)c1c(n2CCc2ccc(C)nc2)CCN(C)C1=O [Compound 216] | −11 | – | 18 | – | – | – | – | 12 | −8 | 3 | 11 | 11
7 | Cc1ccc2c(c1)c1c(n2CCN2CCCCC2)CCN(C)C1 [Compound 224, 2,3,4,5-tetrahydro-2,8-dimethyl-5-(2-(piperidin-1-yl)ethyl)-1H-pyrido[4,3-b]indole] | 74 | – | 61 | – | – | – | 79 | 32 | 43 | 46 | – | –
8 | Cc1ccc2c(c1)c1c(n2CCc2ccccc2)CCN(C(=O)OCC(Cl)(Cl)Cl)C1 [Compound 227, 2,2,2-trichloroethyl 3,4-dihydro-8-methyl-5-phenethyl-1H-pyrido[4,3-b]indole-2(5H)-carboxylate] | 4 | – | −8 | – | – | – | 1 | −2 | 9 | 0 | – | –
9 | Cc1ccc2c(c1)c1c(n2CCc2ccccc2)CCNC1 [Compound 228, 2,3,4,5-tetrahydro-8-methyl-5-phenethyl-1H-pyrido[4,3-b]indole] | 82 | – | 95 | – | – | – | 15 | 77 | 89 | 101 | – | –
10 | CN1CCc2c(c3cc(F)ccc3n2CCc2ccc(F)cc2)C1 [Compound 253] | 93 | 96 | 87 | – | – | – | 73 | – | 105 | 104 | – | –
11 | Cc1ccc2c(c1)c1c(n2CCc2ccc(C(=O)O)nc2)CCNC1 [Compound 262] | 6 | – | 6 | – | – | – | -8 | 6 | −4 | −2 | – | –
12 | CN1CCc2c(c3cc(Cl)ccc3n2CCn2cccc2)C1 [Compound 349, 8-Chloro-2-methyl-5-(2-pyrrol-1-yl-ethyl)-2,3,4,5-tetrahydro-1H-pyrido[4,3-b]indole] | 98 | 86 | 100 | – | – | – | 94 | 97 | 101 | 111 | – | –
13 | Cc1ccc2c(c1)c1c(n2CCC(=O)N2CCC(NC(=O)OC(C)(C)C)CC2)CCN(C)C1 [Compound 393, tert-butyl 1-(3-(1,2,3,4-tetrahydro-2,8-dimethylpyrido[4,3-b]indol-5-yl)propanoyl)piperidin-4-ylcarbamate] | 26 | – | 8 | – | – | – | 3 | 19 | 3 | 28 | – | –
14 | Cc1ccc2c(c1)c1c(n2CCc2ccc(C)[n+]([O-])c2)CCN(C)C1 [Compound 394, 5-(2-(2,8-dimethyl-3,4-dihydro-1H-pyrido[4,3-b]indol-5(2H)-yl)ethyl)-2-methylpyridine 1-oxide] | −8 | – | 7 | – | – | – | -2 | 3 | 5 | 19 | – | –
